Consider 5 compounds from BindingDB's records for doi:10.1007/s002100000299 (University of Oslo, 2001).

SMILES strings stand for the structures. Where “and” joins values, the source holds several entries; their conditions need not be identical. Identical values can stand only once. Bounds are passed on as bounds.

The target in the experiment is 5-hydroxytryptamine receptor 4 (Homo sapiens, UniProt Q13639).
Sequence of 5-hydroxytryptamine receptor 4 (Q13639 whole entry): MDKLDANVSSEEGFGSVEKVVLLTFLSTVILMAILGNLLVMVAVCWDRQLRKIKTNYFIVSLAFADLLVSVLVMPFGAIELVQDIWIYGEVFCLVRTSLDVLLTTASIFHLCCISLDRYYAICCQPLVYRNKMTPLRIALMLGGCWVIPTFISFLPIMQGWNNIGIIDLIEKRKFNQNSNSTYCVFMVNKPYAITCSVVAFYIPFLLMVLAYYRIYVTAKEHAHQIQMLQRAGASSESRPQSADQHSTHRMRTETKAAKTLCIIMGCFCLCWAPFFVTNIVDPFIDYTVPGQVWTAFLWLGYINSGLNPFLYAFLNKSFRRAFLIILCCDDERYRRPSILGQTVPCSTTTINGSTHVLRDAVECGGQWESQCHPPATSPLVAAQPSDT

For `CN1C2CCC1CC(OC(=O)c1c[nH]c3ccccc13)C2` (stereo not given), the Ki was 158 nM and 79.4 nM.
On to `O=C(OCCN1CCCCC1)c1c[nH]c2ccccc12` [CAS_135938-17-9], for which the Ki is 2 nM and 1.3 nM.
With `Cn1cc(C(=O)OCC2CCN(CCNS(C)(=O)=O)CC2)c2ccccc21` [GR 113808] the figure was 0.079 nM and 0.05 nM; with `NCCc1c[nH]c2ccc(C(N)=O)cc12` [[3H]-5-carboxamidotryptamine], above 10000 nM; with `COc1ccc2[nH]cc(CCN)c2c1` [tryptamine, 5-Methoxy], 316 nM and 251 nM.
